From ChEMBL document CHEMBL3046644, “Biological activity of tropolone” (Biol Pharm Bull, 2003)
In brackets after ≈: the same amount, converted by molar mass.

What was measured:
Thermolysin = biological target: T1, Thermolysin (Bacillus thermoproteolyticus, UniProt P00800); assay: Inhibition of Bacillus thermoproteolyticus thermolysin after 15 min
T1 sequence (P00800 whole entry): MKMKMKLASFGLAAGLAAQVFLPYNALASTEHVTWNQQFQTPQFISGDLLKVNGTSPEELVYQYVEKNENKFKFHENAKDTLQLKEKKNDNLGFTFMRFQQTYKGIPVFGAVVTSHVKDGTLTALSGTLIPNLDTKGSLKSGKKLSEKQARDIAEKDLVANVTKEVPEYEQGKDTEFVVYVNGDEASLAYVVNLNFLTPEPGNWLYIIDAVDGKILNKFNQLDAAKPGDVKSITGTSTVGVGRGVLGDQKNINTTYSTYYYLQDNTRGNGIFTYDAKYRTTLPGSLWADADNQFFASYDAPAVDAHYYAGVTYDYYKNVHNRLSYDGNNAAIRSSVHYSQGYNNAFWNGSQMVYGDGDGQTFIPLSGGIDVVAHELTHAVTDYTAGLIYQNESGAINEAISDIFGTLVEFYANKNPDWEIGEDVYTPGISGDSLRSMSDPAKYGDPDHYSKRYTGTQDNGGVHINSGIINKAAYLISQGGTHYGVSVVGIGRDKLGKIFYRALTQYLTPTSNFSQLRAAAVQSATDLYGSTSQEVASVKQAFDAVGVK

Collagenase ColG = biological target: T2, Collagenase ColG (Clostridium histolyticum, UniProt Q9X721); assay: Inhibition of Clostridium histolyticum collagenase after 15 min; set-up: species or system Hathewaya histolytica
T2 sequence (Q9X721 whole entry): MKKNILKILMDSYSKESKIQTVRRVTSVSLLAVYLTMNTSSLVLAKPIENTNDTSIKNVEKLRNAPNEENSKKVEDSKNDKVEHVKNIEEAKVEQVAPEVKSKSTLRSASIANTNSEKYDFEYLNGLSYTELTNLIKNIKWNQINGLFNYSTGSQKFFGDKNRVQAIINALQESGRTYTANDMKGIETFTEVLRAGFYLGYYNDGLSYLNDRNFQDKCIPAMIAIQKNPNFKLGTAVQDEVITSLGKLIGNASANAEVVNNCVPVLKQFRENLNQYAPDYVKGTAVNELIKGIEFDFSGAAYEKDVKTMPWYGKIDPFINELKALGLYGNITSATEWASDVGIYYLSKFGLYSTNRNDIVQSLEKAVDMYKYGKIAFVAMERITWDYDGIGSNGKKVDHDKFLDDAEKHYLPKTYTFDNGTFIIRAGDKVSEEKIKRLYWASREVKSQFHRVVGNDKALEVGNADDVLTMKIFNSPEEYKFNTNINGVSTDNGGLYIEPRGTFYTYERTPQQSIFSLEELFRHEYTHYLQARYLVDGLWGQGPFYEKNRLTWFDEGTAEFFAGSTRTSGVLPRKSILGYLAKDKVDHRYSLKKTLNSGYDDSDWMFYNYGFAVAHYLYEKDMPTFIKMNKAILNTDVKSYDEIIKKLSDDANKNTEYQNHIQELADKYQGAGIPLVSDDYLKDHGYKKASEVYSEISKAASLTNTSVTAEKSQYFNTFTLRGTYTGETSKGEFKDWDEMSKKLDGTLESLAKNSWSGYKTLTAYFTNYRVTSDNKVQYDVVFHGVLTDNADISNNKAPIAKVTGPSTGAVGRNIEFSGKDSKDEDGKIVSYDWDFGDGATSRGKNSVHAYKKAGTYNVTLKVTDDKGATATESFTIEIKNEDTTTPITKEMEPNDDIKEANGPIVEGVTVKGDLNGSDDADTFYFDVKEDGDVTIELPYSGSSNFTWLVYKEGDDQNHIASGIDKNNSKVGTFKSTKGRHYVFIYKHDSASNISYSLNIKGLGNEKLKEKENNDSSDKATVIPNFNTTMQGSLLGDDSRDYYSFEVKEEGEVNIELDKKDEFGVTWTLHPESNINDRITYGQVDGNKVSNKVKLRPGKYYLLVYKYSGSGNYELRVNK

Carboxypeptidase A1 = biological target: T3, Carboxypeptidase A1 (Bos taurus, UniProt P00730); assay: Inhibition of Bos taurus (bovine) pancrease carboxypeptidase A after 15 min
T3 sequence (P00730 whole entry): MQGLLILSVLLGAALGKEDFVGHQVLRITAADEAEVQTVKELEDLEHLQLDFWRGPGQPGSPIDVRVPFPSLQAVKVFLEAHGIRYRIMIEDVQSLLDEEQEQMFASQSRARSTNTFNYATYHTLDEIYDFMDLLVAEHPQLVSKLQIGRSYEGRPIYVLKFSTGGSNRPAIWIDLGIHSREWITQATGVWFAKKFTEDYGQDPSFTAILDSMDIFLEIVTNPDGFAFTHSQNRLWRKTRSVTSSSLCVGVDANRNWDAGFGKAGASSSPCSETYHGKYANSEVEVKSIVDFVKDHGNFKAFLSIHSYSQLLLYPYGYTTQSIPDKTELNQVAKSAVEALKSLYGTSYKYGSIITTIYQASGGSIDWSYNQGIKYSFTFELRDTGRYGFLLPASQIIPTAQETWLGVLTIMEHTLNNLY

Dermatophagoides farinae [1] = assay: Insecticidal activity against Dermatophagoides farinae assessed as mortality at 1 g/m'2 after 24 hr by clip method; assay type: functional
Tyrophagus putrescentiae [2] = assay: Insecticidal activity against Tyrophagus putrescentiae assessed as mortality at 0.20 g/m'2 after 24 hr by clip method; assay type: functional
Tyrophagus putrescentiae [3] = assay: Insecticidal activity against Tyrophagus putrescentiae assessed as mortality at 0.40 g/m'2 after 24 hr by clip method; assay type: functional
Tyrophagus putrescentiae [4] = assay: Insecticidal activity against Tyrophagus putrescentiae assessed as mortality at 0.60 g/m'2 after 24 hr by clip method; assay type: functional
Tyrophagus putrescentiae [5] = assay: Insecticidal activity against Tyrophagus putrescentiae assessed as mortality at 1 g/m'2 after 24 hr by clip method; assay type: functional
Tyrophagus putrescentiae [6] = assay: Insecticidal activity against Tyrophagus putrescentiae assessed as mortality at 0.80 g/m'2 after 24 hr by clip method; assay type: functional
Coptotermes formosanus [7] = assay: Insecticidal activity against Coptotermes formosanus assessed as mortality at 0.050 g/m'2 after 24 hr; assay type: functional
Coptotermes formosanus [8] = assay: Insecticidal activity against Coptotermes formosanus assessed as mortality at 0.200 g/m'2 after 24 hr; assay type: functional
Coptotermes formosanus [9] = assay: Insecticidal activity against Coptotermes formosanus assessed as mortality at 1 g/m'2 after 24 hr; assay type: functional
Coptotermes formosanus [10] = assay: Insecticidal activity against Coptotermes formosanus assessed as mortality at 1 g/m'2 after 48 hr; assay type: functional
Coptotermes formosanus [11] = assay: Insecticidal activity against Coptotermes formosanus assessed as mortality at 0.200 g/m'2 after 48 hr; assay type: functional
Coptotermes formosanus [12] = assay: Insecticidal activity against Coptotermes formosanus assessed as mortality at 0.100 g/m'2 after 48 hr; assay type: functional
Coptotermes formosanus [13] = assay: Insecticidal activity against Coptotermes formosanus assessed as mortality at 0.050 g/m'2 after 48 hr; assay type: functional
Dermatophagoides farinae [14] = assay: Insecticidal activity against Dermatophagoides farinae assessed as mortality at 0.05 g/m'2 after 24 hr by clip method; assay type: functional
Dermatophagoides farinae [15] = assay: Insecticidal activity against Dermatophagoides farinae assessed as mortality at 0.20 g/m'2 after 24 hr by clip method; assay type: functional
Dermatophagoides farinae [16] = assay: Insecticidal activity against Dermatophagoides farinae assessed as mortality at 0.40 g/m'2 after 24 hr by clip method; assay type: functional
Dermatophagoides farinae [17] = assay: Insecticidal activity against Dermatophagoides farinae assessed as mortality at 0.60 g/m'2 after 24 hr by clip method; assay type: functional
Dermatophagoides farinae [18] = assay: Insecticidal activity against Dermatophagoides farinae assessed as mortality at 0.80 g/m'2 after 24 hr by clip method; assay type: functional
Dermatophagoides farinae [19] = assay: Insecticidal activity against Dermatophagoides farinae assessed as mortality at 0.03 g/m'2 after 24 hr by clip method; assay type: functional
Dermatophagoides farinae [20] = assay: Insecticidal activity against Dermatophagoides farinae assessed as mortality at 0.10 g/m'2 after 24 hr by clip method; assay type: functional
Colletotrichum lagenaria = assay: Antifungal activity against Colletotrichum lagenaria after 15 days by agar dilution method; assay type: functional; conditions: 360 h
[21] = system: Colletotrichum orbiculare; assay: Antifungal activity against Colletotrichum orbiculare MAFF 306518 after 15 days by agar dilution method; assay type: functional; conditions: MAFF 306518, 360 h
Phomopsis obscurans = assay: Antifungal activity against Phomopsis obscurans MAFF 744018 after 15 days by agar dilution method; assay type: functional; conditions: Paraphomopsis obscurans, MAFF 744018, 360 h
Botrytis cinerea = assay: Antifungal activity against Botryotinia fuckeliana IFO 30915 after 15 days by agar dilution method; assay type: functional; conditions: IFO 30915, 360 h
Fusarium solani = assay: Antifungal activity against Fusarium solani IFO 9955 after 15 days by agar dilution method; assay type: functional; conditions: IFO 9955, 360 h
Pythium aphanidermatum = assay: Antifungal activity against Pythium aphanidermatum IFO 32440 after 15 days by agar dilution method; assay type: functional; conditions: IFO 32440, 360 h
Thanatephorus cucumeris = assay: Antifungal activity against Thanatephorus cucumeris IFO 30445 after 15 days by agar dilution method; assay type: functional; conditions: IFO 30445, 360 h
Coptotermes formosanus [22] = assay: Insecticidal activity against Coptotermes formosanus assessed as mortality at 0.020 g/m'2 after 24 hr; assay type: functional
Coptotermes formosanus [23] = assay: Insecticidal activity against Coptotermes formosanus assessed as mortality at 0.100 g/m'2 after 24 hr; assay type: functional
Coptotermes formosanus [24] = assay: Insecticidal activity against Coptotermes formosanus assessed as mortality; assay type: functional
Tyrophagus putrescentiae [25] = assay: Insecticidal activity against Tyrophagus putrescentiae assessed as mortality after 24 hr by clip method; assay type: functional
Dermatophagoides farinae [26] = assay: Insecticidal activity against Dermatophagoides farinae assessed as mortality after 24 hr by clip method; assay type: functional
Coptotermes formosanus [27] = assay: Insecticidal activity against Coptotermes formosanus assessed as mortality at 0.010 g/m'2 after 48 hr; assay type: functional
Coptotermes formosanus [28] = assay: Insecticidal activity against Coptotermes formosanus assessed as mortality at 0.020 g/m'2 after 48 hr; assay type: functional
Coptotermes formosanus [29] = assay: Insecticidal activity against Coptotermes formosanus assessed as mortality at 0.010 g/m'2 after 24 hr; assay type: functional

## c1cnc2c(c1)ccc1cccnc12 [PHENANTHROLINE]
Thermolysin
  IC50: 360 µM
Collagenase ColG
  IC50: 185 µM
Carboxypeptidase A1
  IC50: 422 µM

## O=c1cccccc1O [TROPOLONE]
Dermatophagoides farinae [1]
  mortality: 100%
Tyrophagus putrescentiae [2]
  mortality: 9.6%
Tyrophagus putrescentiae [3]
  mortality: 55.8%
Tyrophagus putrescentiae [4]
  mortality: 79.8%
Tyrophagus putrescentiae [5]
  mortality: 100%
Tyrophagus putrescentiae [6]
  mortality: 100%
Coptotermes formosanus [7]
  mortality: 45%
Coptotermes formosanus [8]
  mortality: 100%
Coptotermes formosanus [9]
  mortality: 100%
Coptotermes formosanus [10]
  mortality: 100%
Coptotermes formosanus [11]
  mortality: 100%
Coptotermes formosanus [12]
  mortality: 89.5%
Coptotermes formosanus [13]
  mortality: 77.8%
Dermatophagoides farinae [14]
  mortality: 7.5%
Dermatophagoides farinae [15]
  mortality: 95.7%
Dermatophagoides farinae [16]
  mortality: 100%
Dermatophagoides farinae [17]
  mortality: 100%
Dermatophagoides farinae [18]
  mortality: 100%
Dermatophagoides farinae [19]
  mortality: 0%
Dermatophagoides farinae [20]
  mortality: 24.5%
Colletotrichum lagenaria
  MIC: 12 µg/mL (≈ 98.3 µM)
[21]
  MIC: 12 µg/mL (≈ 98.3 µM)
Phomopsis obscurans
  MIC: 12 µg/mL (≈ 98.3 µM)
Botrytis cinerea
  MIC: 25 µg/mL (≈ 205 µM)
Fusarium solani
  MIC: 25 µg/mL (≈ 205 µM)
Pythium aphanidermatum
  MIC: 6 µg/mL (≈ 49.1 µM)
Thanatephorus cucumeris
  MIC: 12 µg/mL (≈ 98.3 µM)
Thermolysin
  IC50: 71.1 µM
Coptotermes formosanus [22]
  mortality: 37.5%
Coptotermes formosanus [23]
  mortality: 78.9%
Collagenase ColG
  IC50: 46.8 µM
Carboxypeptidase A1
  IC50: 2.73 µM
Coptotermes formosanus [24]
  LC50: 0.04 g/m2
Tyrophagus putrescentiae [25]
  LC50: 0.11 g/m2
Dermatophagoides farinae [26]
  LC50: 0.08 g/m2
Coptotermes formosanus [27]
  mortality: 0%
Coptotermes formosanus [28]
  mortality: 57.9%
Coptotermes formosanus [29]
  mortality: 0%
